Measurements as given in patent US20220340764A1, “HYDROPHOBIC AND OLEOPHOBIC SURFACES AND USES THEREOF” (Technion Research & Development Foundation Limited, priority 2012, published 2022).
Each block holds one compound with its values, some of them ahead of it.

What was measured:
[1] = Static contact angle (wettability) of wax-coated surfaces, Attension Theta tensiometer; format: physicochemical; design: C.A. Cyclohexane / C.A. hexadecane / C.A. Water / C.A. Glycerol / C.A. Ethylene Glycol / C.A. Benzyl Chloride / C.A. Clorobenzene: unit not given here; conditions: for C.A. Benzyl Chloride: liquid Benzyl Chloride; for C.A. Clorobenzene: liquid Clorobenzene; for C.A. Cyclohexane: liquid Cyclohexane; for C.A. Ethylene Glycol: liquid Ethylene Glycol; for C.A. Glycerol: liquid Glycerol; for C.A. Water: liquid Water; for C.A. hexadecane: liquid hexadecane
Description: Typically, but not exclusively, in order to measure the static contact angle, a drop of liquid is formed on the tip of a hypodermic needle attached to a screw syringe. The syringe is fastened to a stand which reduces any irregularities that are produced by manual drop deposition. The substrate is then raised until it touches the drop using the Y control of the stage. The drop is the then brought into the field of view and onto the focal point of the microscope by x-y translation of the stage and image is captured. The static contact angle is calculated by methods known in the art. An exemplary methodology and system for measuring a static contact angle in described in Example s in the Examples section that follows.
The wettability of the surfaces was characterized using water contact angle (C.A.) measurements recorded with an Attension Theta tensiometer. The water wettability measurements were performed with a constant high-purity water drop volume of 7 μL.
Oil contact angles were determined for the following liquids: Glycerol, ethylene glycol, olive oil, benzyl chloride, clorobenzene, cyclohexane and hexadecane, using an Attension Theta tensiometer with approximately 8 μL liquid drops.
Time-dependent contact angle measurements were performed during a period of two weeks.
(§1) Contact angles and RMS roughness were measured as described in Example 2 hereinabove.

B. cereus 407 biofilms = assay: Biofilm formation on wax-coated glass substrates, LIVE/DEAD staining, CLSM; format: cell-based, Bacillus cereus; conditions: glass substrate with thermally evaporated wax, in comparison to control glass surface; FIGS. 7A-7E
Procedure: Bacillus cereus 407 and ATCC 10987 stains were obtained from Michel Gohar's lab collection (INRA, France).
(§2) For biofilm generation, bacteria were grown to stationary phase in LB (Lysogeny broth) medium at 37° C. in shaking culture. The generated cultures were seeded (by dilution 1:100) into sterile polystyrene multidishes containing different substrates and inoculated into fresh media (37° C., 5 95% air/5% CO2 (v/v) statically without agitation.
(§3) To visualize the constructed biofilms, the substrates were removed from the wells, washed with PBS buffer and stained with FilmTracer™ LIVE/DEAD Biofilm Viability Kit (Molecular Probes, OR) according to the manufacturer's protocol. The stained samples were observed using an Olympus IX81 confocal laser scanning microscope (CLSM, Japan). Live cells were stained green, while dead cells were stained red. Fluorescence emission of the stained samples was measured using an Olympus IX81 CLSM equipped with 488-nm argon-ion and 543-nm helium-neon lasers.
(§4) Two different biofilm forming pathogenic bacteria, B. cereus (Gram positive) and P. aeruginosa (Gram negative), which are often encountered in clinical and industrial settings, were tested for their ability to form biofilm on glass substrates having thermally evaporated thereon the following wax materials: C24F50, C36H74, C40H82 and C44H90.

P. aeruginosa biofilm = assay: as above; format: cell-based, Pseudomonas aeruginosa PA14; conditions: glass substrate with thermally evaporated wax; FIGS. 8A-E
Procedure: Pseudomonas aeruginosa PA14 was obtained from Shlomo Sela's lab strain collection (Agricultural Research Organization, Israel).
as §2, §3, §4

[2] = RMS roughness of wax-coated surfaces by confocal microscopy; format: physicochemical; conditions: for Roughness (RMS): spray coated on Si wafer, 5 seconds×4 cycles, wax solution; for RMS roughness growth: thermally-evaporated on silicon substrate
Procedure: RMS roughness (Rq) is typically calculated according to the following formula: […]
Confocal microscopy (Leica DCM3D) was used for roughness measurements. Time-dependent measurements were performed on counterpart samples having non-fluorinated wax coatings that were used for XRD time-dependent measurements. In situ time-resolved confocal microscopy was used for observation of the change in surface roughness over a constant 100 μm×100 μm area for duration of 160 hours. A topographical image was collected every hour. These experiments encompassed the same duration and time intervals as the time-dependent XRD measurements hereinabove.
Similar time-dependent measurements were performed for samples coated with fluorinated wax, maintained at a temperature of 90° C., during 60 hours. These experiments were supported by time-dependent XRD measurements performed at 90° C. during 60 hours, with 1 hour time intervals.
as §1

[3] = thermally-evaporated wax on Silicon substrate
[4] = spray coated on Si wafer, 5 seconds×4 cycles, wax solution
[5] = thermally evaporated on silicon wafer, maintained at 90° C., 18 hr
[6] = thermally evaporated on silicon wafer, maintained at 90° C., 20 hr
[7] = thermally evaporated on silicon wafer, maintained at 90° C., 22 hr
[8] = thermally evaporated on silicon wafer, maintained at 90° C., 30 hr
[9] = thermally evaporated on silicon wafer, maintained at 90° C., 40 hr
[10] = thermally evaporated on silicon wafer, maintained at 90° C., 50 hr
[11] = thermally evaporated on silicon wafer, maintained at 90° C., 60 hr

C.A. Ethylene Glycol [1, 4]: 60
C.A. Glycerol [1, 4]: 96
C.A. Water [1, 4]: 96
C.A. Benzyl Chloride [1, 3]: Fully wetted
C.A. Clorobenzene [1, 3]: Fully wetted
C.A. Cyclohexane [1, 3]: Fully wetted
C.A. Ethylene Glycol [1, 3]: 103
C.A. Glycerol [1, 3]: 130
C.A. Water [1, 3]: 161
C.A. hexadecane [1, 3]: Fully wetted
SMILES: CCCCCCCCCCCCCCCCCCCCCCCCCCCCCCCCCCCCCCCCCCCC [C44, tetratetracontane]
B. cereus biofilm formation on coated substrate (B. cereus 407 biofilms): could not adhere successfully to form confluent biofilms
P. aeruginosa biofilm formation on coated substrate (P. aeruginosa biofilm): substantially prevented the biofilm formation

C.A. Benzyl Chloride [1, 3]: Fully wetted
C.A. Clorobenzene [1, 3]: Fully wetted
C.A. Cyclohexane [1, 3]: Fully wetted
C.A. Ethylene Glycol [1, 3]: 100
C.A. Glycerol [1, 3]: 111
C.A. Water [1, 3]: 151
C.A. hexadecane [1, 3]: Fully wetted
SMILES: CCCCCCCCCCCCCCCCCCCCCCCCCCCCCCCCCCCCCCCCCCCCCCCCCC [C50, pentacontane]

Roughness (RMS) [2]: 0.07-0.1 μm
C.A. Ethylene Glycol [1, 4]: 58
C.A. Glycerol [1, 4]: 64
C.A. Water [1, 4]: 75
contact angle of a water drop ([1]; thermally-evaporated on gold surface, maintained at room temperature for a week): 165 °
C.A. Benzyl Chloride [1, 3]: Fully wetted
C.A. Clorobenzene [1, 3]: Fully wetted
C.A. Cyclohexane [1, 3]: Fully wetted
C.A. Ethylene Glycol [1, 3]: 121
C.A. Glycerol [1, 3]: 133
C.A. Water [1, 3]: 171
C.A. hexadecane [1, 3]: Fully wetted
SMILES: CCCCCCCCCCCCCCCCCCCCCCCCCCCCCCCCCCCC [C36, hexatriacontane]
B. cereus biofilm formation on coated substrate (B. cereus 407 biofilms): Less significant inhibition of biofilm formation

Roughness (RMS) [2]: 0.06-0.09 μm
C.A. Ethylene Glycol [1, 4]: 62
C.A. Glycerol [1, 4]: 69
C.A. Water [1, 4]: 85
C.A. Benzyl Chloride [1, 3]: Fully wetted
C.A. Clorobenzene [1, 3]: Fully wetted
C.A. Cyclohexane [1, 3]: Fully wetted
C.A. Ethylene Glycol [1, 3]: 112
C.A. Glycerol [1, 3]: 144
C.A. Water [1, 3]: 167
C.A. hexadecane [1, 3]: Fully wetted
SMILES: CCCCCCCCCCCCCCCCCCCCCCCCCCCCCCCCCCCCCCCC [C40, tetracontane]
B. cereus biofilm formation on coated substrate (B. cereus 407 biofilms): could not adhere successfully to form confluent biofilms

Continued, compound first:

SMILES: FC(F)(F)C(F)(F)C(F)(F)C(F)(F)C(F)(F)C(F)(F)C(F)(F)C(F)(F)C(F)(F)C(F)(F)C(F)(F)C(F)(F)C(F)(F)C(F)(F)C(F)(F)C(F)(F)C(F)(F)C(F)(F)C(F)(F)C(F)(F)F [C20, perfluoroeicosane, reference compound]
C.A. Benzyl Chloride [1, 3]: Fully wetted
C.A. Clorobenzene [1, 3]: Fully wetted
C.A. Cyclohexane [1, 3]: Fully wetted
C.A. Ethylene Glycol [1, 3]: 122
C.A. Glycerol [1, 3]: 120
C.A. Water [1, 3]: 128
C.A. hexadecane [1, 3]: Fully wetted

SMILES: FC(F)(F)C(F)(F)C(F)(F)C(F)(F)C(F)(F)C(F)(F)C(F)(F)C(F)(F)C(F)(F)C(F)(F)C(F)(F)C(F)(F)C(F)(F)C(F)(F)C(F)(F)C(F)(F)C(F)(F)C(F)(F)C(F)(F)C(F)(F)C(F)(F)C(F)(F)C(F)(F)C(F)(F)F [C24, perfluorotetracosane]
B. cereus biofilm formation on coated substrate (B. cereus 407 biofilms): could not adhere successfully to form confluent biofilms
Roughness (RMS) [2]: 0.12 μm
surface roughness (R.M.S.) ([2]; thermally-evaporated fluorinated wax, at 90° C. after a 60 hour time period): 0.9 μm
surface roughness (R.M.S.), initial ([2]; thermally-evaporated fluorinated wax, before maintaining at 90° C.): 0.7 μm
RMS roughness growth ([2]; 20 hours at 70° C.): about 0.06 μm
RMS roughness growth ([2]; 20 hours at 80° C.): about 0.08 μm
RMS roughness growth ([2]; maintained at 90° C.): about 0.4 μm
P. aeruginosa biofilm formation on coated substrate (P. aeruginosa biofilm): substantially prevented the biofilm formation
C.A. Ethylene Glycol [1, 4]: 100
C.A. Glycerol [1, 4]: 140
C.A. Water [1, 4]: 141
C.A. Ethylene Glycol 18 hr [1, 5]: 167
C.A. Glycerol 18 hr [1, 5]: 163
C.A. Hexadecane 18 hr [1, 5]: 122
C.A. Water 18 hr [1, 5]: 160
C.A. Ethylene Glycol 20 hr [1, 6]: 159
C.A. Glycerol 20 hr [1, 6]: 164
C.A. Hexadecane 20 hr [1, 6]: 115
C.A. Water 20 hr [1, 6]: 165
C.A. Ethylene Glycol 22 hr [1, 7]: 155
C.A. Glycerol 22 hr [1, 7]: 165
C.A. Hexadecane 22 hr [1, 7]: 118
C.A. Water 22 hr [1, 7]: 161
C.A. Ethylene Glycol 30 hr [1, 8]: 160
C.A. Glycerol 30 hr [1, 8]: 167
C.A. Hexadecane 30 hr [1, 8]: 119
C.A. Water 30 hr [1, 8]: 168
C.A. Ethylene Glycol 40 hr [1, 9]: 156
C.A. Glycerol 40 hr [1, 9]: 167
C.A. Hexadecane 40 hr [1, 9]: 124
C.A. Water 40 hr [1, 9]: 168
C.A. Ethylene Glycol 50 hr [1, 10]: 161
C.A. Glycerol 50 hr [1, 10]: 163
C.A. Hexadecane 50 hr [1, 10]: 123
C.A. Water 50 hr [1, 10]: 163
C.A. Ethylene Glycol 60 hr [1, 11]: 166
C.A. Glycerol 60 hr [1, 11]: 166
C.A. Hexadecane 60 hr [1, 11]: 117
C.A. Water 60 hr [1, 11]: 167
time-dependent contact angle of water, glycerol, ethylene glycol and hexadecane ([1]; thermally evaporated on silicon wafer, room temperature, two-week period): slight variation of the measured contact angles
contact angle of olive oil drop ([1]; thermally-evaporated on silicon substrate, FIG. 3A insert): high contact angle
C.A. Benzyl Chloride [1, 3]: 139
C.A. Clorobenzene [1, 3]: 138
C.A. Cyclohexane [1, 3]: 112
C.A. Ethylene Glycol [1, 3]: 171
C.A. Glycerol [1, 3]: 172
C.A. Water [1, 3]: 172
C.A. hexadecane [1, 3]: 112

SMILES: FC(F)(F)C(F)(F)C(F)(F)C(F)(F)C(F)(F)C(F)(F)C(F)(F)C(F)(F)C(F)(F)C(F)(F)C(F)(F)C(F)(F)C(F)(F)C(F)(F)C(F)(F)F [C15, perfluoropentadecane]
Roughness (RMS) [2]: 0.12 μm
C.A. Ethylene Glycol [1, 4]: 59
C.A. Glycerol [1, 4]: 110
C.A. Water [1, 4]: 114
